How the values were obtained:
[1] = test system: MRC-5 cells; test: MTT cell viability assay on non-cancerous MRC-5 fibroblasts; assay type: cell-based; conditions: 72 hours, MTT
Procedure: (§1) HeLa, MCF-7 and MDA-MB-231 cells were obtained from Sigma-Aldrich and maintained as reported previously. MRC-5, PC-3, DU 145 cells were purchased from American Type Culture Collection (ATCC, Manassas, VA, USA). PC-3 and DU 145 were maintained in RPMI medium (Sigma-Aldrich) whereas MRC-5 cells were maintained in DMEM medium (Sigma-Aldrich). All media were complemented with 10% Fetal bovine serum (FBS, Sigma-Aldrich) 2 mM L-glutamine, 0.01% streptomycin and 0.005% ampicillin (Sigma-Aldrich). Cells were cultured under standard conditions in a 37 °C incubator containing 5% CO2 in 95% humidity.
(§2) Each test compound was dissolved in cell culture grade DMSO (Molar Chemicals, Halásztelek, Hungary) in a final concentration of […]. Antiproliferative action of the synthesized steroids was investigated by MTT assay. An amount of 5000 cells/well were seeded into 96 well plates. Twenty-four hours post seeding, all cell lines were treated with each compound in 10 and 30 μM concentrations for 72 hours. […] After 72 hours, cells were washed with PBS and incubated with culture medium containing 0.5 mg/mL MTT (3-(4, 5-dimethylthiazolyl-2)-2,5-diphenyltetrazolium bromide) reagent (SERVA, GmbH, Heidelberg, Germany) for an hour at 37 °C. Formazan crystals were solubilized in DMSO and extinction was measured at 570 nm using a Synergy HTX plate reader (BioTech-Hungary, Budapest, Hungary). MTT assays were performed at least three times using four independent biological replicates. Data were normalized to solvent controls and the graphical representation of the obtained data as well as the calculation of IC50 values were carried out by GraphPad Prism 7 software (GraphPad Software; San Diego, CA, USA).

[2] = test system: DU 145 cells; test: MTT cell viability assay on DU 145 prostate cancer cells; assay type: cell-based, human; conditions: 72 hours
Procedure: as §1, §2

[3] = test system: PC-3 cells; test: MTT cell viability assay on PC-3 prostate cancer cells; assay type: cell-based, human; conditions: for antiproliferative potency against PC-3 prostate cancer cells compared to MRC-5 non-cancerous fibroblasts: primary screen
Procedure: as §1, §2

[4] = test system: HeLa cells; test: MTT cell viability assay on HeLa cervical cancer cells; assay type: cell-based, human; conditions: 72 hours
Procedure: as §1, §2

[5] = test system: MCF-7 cells; test: MTT cell viability assay on MCF-7 breast cancer cells; assay type: cell-based, human; conditions: 72 hours
Procedure: as §1, §2

[6] = test system: MDA-MB-231 cells; test: MTT cell viability assay on MDA-MB-231 breast cancer cells; assay type: cell-based, human; conditions: 72 hours
Procedure: as §1, §2

Compound	Mean values (%) of primary growth inhibitory screen (viability in %), MRC-5 ([1]; 10 µM) [%]	Mean values (%) of primary growth inhibitory screen (viability in %), MRC-5 ([1]; 30 µM) [%]	Mean values (%) of primary growth inhibitory screen (viability in %), DU 145 ([2]; 10 µM) [%]	Mean values (%) of primary growth inhibitory screen (viability in %), DU 145 ([2]; 30 µM) [%]	Mean values (%) of primary growth inhibitory screen (viability in %), PC-3 ([3]; 10 µM, 72 hours, MTT) [%]	Mean values (%) of primary growth inhibitory screen (viability in %), PC-3 ([3]; 30 µM, 72 hours, MTT) [%]	Mean values (%) of primary growth inhibitory screen (viability in %), HeLa ([4]; 10 µM) [%]	Mean values (%) of primary growth inhibitory screen (viability in %), HeLa ([4]; 30 µM) [%]	Mean values (%) of primary growth inhibitory screen (viability in %), MCF-7 ([5]; 10 µM) [%]	Mean values (%) of primary growth inhibitory screen (viability in %), MCF-7 ([5]; 30 µM) [%]	Mean values (%) of primary growth inhibitory screen (viability in %), MDA-MB-231 ([6]; 10 µM) [%]	Mean values (%) of primary growth inhibitory screen (viability in %), MDA-MB-231 ([6]; 30 µM) [%]	IC50 ([1]; ± SD) [µM]	IC50 ([2]; ± SD) [µM]	antiproliferative potency against PC-3 prostate cancer cells compared to MRC-5 non-cancerous fibroblasts ([3]; 10 µM)	antiproliferative potency against PC-3 prostate cancer cells compared to MRC-5 non-cancerous fibroblasts ([3]; 30 µM)	IC50 ([3]; MTT, 72 hours, ± SD) [µM]	IC50 ([4]; ± SD) [µM]	IC50 ([5]; ± SD) [µM]	IC50 ([6]; ± SD) [µM]
Cc1c2c(nn1-c1ccc(C#N)cc1)C[C@@H]1CC[C@@H]3[C@H](CC[C@]4(C)C(=O)CC[C@@H]34)[C@@]1(C)C2 [5i, 1′-(4″-Cyanophenyl)-5′-methylpyrazolo[3′,4′:3,2]-5α-androst-17-one]	90.4	87.9	83.3	79.9	56.2	70.0	42.2	36.4	53.2	39.4	70.6	59.7								
Cc1c2c(nn1-c1ccc([N+](=O)[O-])cc1)C[C@@H]1CC[C@@H]3[C@H](CC[C@]4(C)C(=O)CC[C@@H]34)[C@@]1(C)C2 [5j, 1′-(4″-Nitrophenyl)-5′-methylpyrazolo[3′,4′:3,2]-5α-androst-17-one]	94.8	44.6	73.0	42.8	36.8	16.0	47.4	29.4	46.5	14.4	83.5	71.7	25.5 ± 2.3	13.5 ± 1.1	significantly higher	significantly higher	6.7 ± 1.1	10.4 ± 0.1	11.3 ± 2.8	> 30

Reference: PMC6539495, “Anti-Cancer Activity of Novel Dihydrotestosterone-Derived Ring A-Condensed Pyrazoles on Androgen Non-Responsive Prostate Cancer Cell Lines” (International Journal of Molecular Sciences, 2019)
